*1 amine or outer side, *2 acyl side, *3 side chain or, on linkers, in order; H or OH if unused. Where a SMILES comes first, the peptide text is derived from it. Bridges are numbered along the chain shown (N, C = ends). [ ]: non-standard residue; d: D form. ξ: configuration not given here. Trp(1-CH2COOH) = N[C@@H](Cc1cn(CC(=O)O)c2ccccc12)C(=O)O; Phe(3,4,5-F3) = N[C@@H](Cc1cc(F)c(F)c(F)c1)C(=O)O; Pro(trans-4-F) = O=C(O)[C@@H]1C[C@@H](F)CN1; NMePhe(4-F) = CN[C@@H](Cc1ccc(F)cc1)C(=O)O; Phe(4-F) = N[C@@H](Cc1ccc(F)cc1)C(=O)O; d(cisHyp) = O=C(O)[C@H]1C[C@@H](O)CN1; Hyp = O=C(O)[C@@H]1C[C@@H](O)CN1; NMeF = CN[C@@H](Cc1ccccc1)C(=O)O; X1 = O=C([C@H]1COCCN1[*:1])[*:2]; dPip(4-aza) = O=C(O)[C@H]1CNCCN1; NMeE = CN[C@@H](CCC(=O)O)C(=O)O; NMeL = CN[C@@H](CC(C)C)C(=O)O; NMeNle = CCCC[C@H](NC)C(=O)O; Pip = O=C(O)[C@@H]1CCCCN1; dPip = O=C(O)[C@H]1CCCCN1; hSer = N[C@@H](CCO)C(=O)O; NMeA = CN[C@@H](C)C(=O)O; Orn = NCCC[C@H](N)C(=O)O; dThz = O=C(O)[C@H]1CSCN1; Dab = NCC[C@H](N)C(=O)O; Dap = NC[C@H](N)C(=O)O; ξC = NC(CS)C(=O)O
Biological target: T1, Human PD-L1/PD-1 (Homo sapiens, UniProt Q9NZQ7)
T1 construct: TVMV protease cleavage site (C); made in house; host or cells: HEK293T cells
T1 sequence (Q9NZQ7 with tags, fused parts or gaps): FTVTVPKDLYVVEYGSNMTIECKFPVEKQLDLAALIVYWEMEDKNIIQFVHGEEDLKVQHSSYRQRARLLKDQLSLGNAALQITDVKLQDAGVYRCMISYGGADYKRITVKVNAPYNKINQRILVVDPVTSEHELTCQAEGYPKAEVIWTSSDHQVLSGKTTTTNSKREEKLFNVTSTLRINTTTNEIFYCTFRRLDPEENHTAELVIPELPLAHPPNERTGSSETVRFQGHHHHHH
Assay: HTRF Human PD-L1/PD-1 binding assay (PD-1-Ig/PD-L1-His)
Details: PD-L1-His 10 nM, PD-1-Ig 20 nM; class symbol; read-out: HTRF Human PD-L1/PD-1 Binding Assay IC50 Range
Summary of the method: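 Compound preincubated 15 min with PD-L1-His (10 nM final), then PD-1-Ig (20 nM final) added for 15 min in dPBS with 0.1% BSA and 0.05% Tween-20. Detection by Eu-cryptate anti-Ig (1 nM) and APC anti-His (20 nM) after 30 min; 665/620 nm HTRF ratio. Proteins expressed in HEK293T.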

IC50 | Compound
1 to 9.9 nM | CCCC[C@H]1C(=O)N(C)[C@@H](CCCC)C(=O)N[C@@H](CCC(=O)O)C(=O)NC(C(=O)NCC(N)=O)CSCC(=O)N[C@@H](Cc2ccc(O)cc2)C(=O)N(C)[C@@H](C)C(=O)N[C@@H](CC(N)=O)C(=O)N2CCC[C@H]2C(=O)N[C@@H](CC(N)=O)C(=O)N[C@@H](CC(C)C)C(=O)N2CCC[C@H]2C(=O)N[C@@H](Cc2c[nH]c3ccccc23)C(=O)N[C@@H](CO)C(=O)N[C@@H](Cc2c[nH]c3ccccc23)C(=O)N1C (stereo partly drawn) [Example 9168] ({CH2CO}-Y[NMeA]NPNLPWSW[NMeNle][NMeNle]E[ξC]G-NH2; thioether N-14)
1 to 9.9 nM | CCCC[C@H]1C(=O)N(C)[C@@H](CCCC)C(=O)N[C@@H](CCC(=O)O)C(=O)N[C@H](C(=O)NCC(N)=O)CSCC(=O)N[C@@H](Cc2ccc(O)cc2)C(=O)N2CCCC[C@H]2C(=O)N[C@@H](CC(N)=O)C(=O)N2CCC[C@H]2C(=O)N[C@@H](CN)C(=O)N[C@@H](CCC(=O)O)C(=O)N2C[C@H](O)C[C@H]2C(=O)N[C@@H](Cc2c[nH]c3ccccc23)C(=O)N[C@@H](CCN)C(=O)N[C@@H](Cc2c[nH]c3ccccc23)C(=O)N1C [Example 1526] ({CH2CO}-Y[Pip]NP[Dap]E[Hyp]W[Dab]W[NMeNle][NMeNle]ECG-NH2; thioether N-14)
1000 to 10000 nM | CCCC[C@H]1C(=O)N(C)CC(=O)N[C@@H](CC(=O)O)C(=O)NC(C(C)c2ccccc2)C(=O)N(C)[C@@H](Cc2ccccc2)C(=O)N[C@@H](Cc2ccc(O)cc2)C(=O)N(C)CC(=O)N[C@@H](Cc2c[nH]c3ccccc23)C(=O)N[C@@H](Cc2ccc(O)cc2)C(=O)N[C@@H](CC(C)C)C(=O)N[C@H](C(=O)NCC(N)=O)CSCC(=O)N[C@@H](Cc2ccccc2)C(=O)N(C)[C@@H](Cc2ccccc2)C(=O)N1C (single isomer, unassigned) [Example 3230-A]
1 to 9.9 nM | CCCC[C@H]1C(=O)N(C)[C@@H](CCCC)C(=O)N[C@@H](CCCNC(=N)N)C(=O)N[C@H](C(=O)NCC(N)=O)CSCC(=O)N[C@@H](Cc2ccc(F)cc2)C(=O)N(C)[C@@H](C)C(=O)N[C@@H](CC(N)=O)C(=O)N2CCC[C@H]2C(=O)N[C@@H](Cc2cnc[nH]2)C(=O)N[C@@H](CCC(=O)O)C(=O)N2C[C@H](O)C[C@H]2C(=O)N[C@@H](Cc2c[nH]c3ccccc23)C(=O)N[C@@H](CCN)C(=O)N[C@@H](Cc2c[nH]c3ccccc23)C(=O)N1C [Example 7081] ({CH2CO}-[Phe(4-F)][NMeA]NPHE[Hyp]W[Dab]W[NMeNle][NMeNle]RCG-NH2; thioether N-14)
10 to 99.9 nM | CCCC[C@H]1C(=O)N2C[C@H](O)C[C@@H]2C(=O)N[C@@H](CC(=O)O)C(=O)N[C@@H](C(C)C)C(=O)N(C)[C@@H](Cc2ccccc2)C(=O)N[C@@H](CCC(=O)O)C(=O)N2CCNC[C@@H]2C(=O)N[C@@H](Cc2c[nH]c3ccccc23)C(=O)N[C@@H](Cc2ccc(O)cc2)C(=O)N[C@@H](CCCN)C(=O)N[C@H](C(=O)NCC(N)=O)CSCC(=O)N[C@@H](Cc2ccc(F)cc2)C(=O)N(C)[C@@H](Cc2ccccc2)C(=O)N1C [Example 3648] ({CH2CO}-[Phe(4-F)][NMeF][NMeNle][d(cisHyp)]DV[NMeF]E[dPip(4-aza)]WY[Orn]CG-NH2; thioether N-13)
1 to 9.9 nM | CCCC[C@H]1C(=O)N(C)[C@@H](CCCC)C(=O)N[C@@H](CC(C)C)C(=O)N[C@H](C(=O)NCC(N)=O)CSCC(=O)N[C@@H](Cc2ccc(O)cc2)C(=O)N(C)[C@@H](C)C(=O)N[C@@H](CC(=O)O)C(=O)N2CCC[C@H]2C(=O)N[C@@H](Cc2cnc[nH]2)C(=O)N[C@@H](CCC(=O)O)C(=O)N2C[C@H](O)C[C@H]2C(=O)N[C@@H](Cc2c[nH]c3ccccc23)C(=O)N[C@@H](CO)C(=O)N[C@@H](Cc2cn(CC(=O)O)c3ccccc23)C(=O)N1C [Example 6276] ({CH2CO}-Y[NMeA]DPHE[Hyp]WS[Trp(1-CH2COOH)][NMeNle][NMeNle]LCG-NH2; thioether N-14)
10 to 99.9 nM | CCCC[C@H]1C(=O)N[C@@H](CN)C(=O)N[C@H](C(=O)NCC(N)=O)CSCC(=O)N[C@@H](Cc2ccc(O)cc2)C(=O)N(C)[C@@H](C)C(=O)N[C@@H](CC(N)=O)C(=O)N2CCC[C@H]2C(=O)N[C@@H](Cc2c[nH]cn2)C(=O)N[C@@H](CCC(=O)O)C(=O)N2C[C@H](O)C[C@H]2C(=O)N[C@@H](Cc2c[nH]c3ccccc23)C(=O)N[C@@H](CCN)C(=O)N[C@@H](Cc2c[nH]c3ccccc23)C(=O)N(C)[C@@H](CCC(=O)O)C(=O)N1C [Example 5152] ({CH2CO}-Y[NMeA]NPHE[Hyp]W[Dab]W[NMeE][NMeNle][Dap]CG-NH2; thioether N-14)
1 to 9.9 nM | CCCC[C@H]1C(=O)N2CCC[C@@H]2C(=O)N[C@@H](CO)C(=O)N[C@@H](C(C)C)C(=O)N(C)[C@@H](Cc2ccccc2)C(=O)N[C@@H](CCC(=O)O)C(=O)N2CCCC[C@@H]2C(=O)N[C@@H](Cc2c[nH]c3ccccc23)C(=O)N[C@@H](Cc2ccc(O)cc2)C(=O)N[C@@H](CC(C)C)C(=O)N[C@H](C(=O)NCC(N)=O)CSCC(=O)N[C@@H](Cc2cc(F)c(F)c(F)c2)C(=O)N(C)[C@@H](Cc2ccc(F)cc2)C(=O)N1C [Example 10587] ({CH2CO}-[Phe(3,4,5-F3)][NMePhe(4-F)][NMeNle][dP]SV[NMeF]E[dPip]WYLCG-NH2; thioether N-13)
1 to 9.9 nM | CCCC[C@H]1C(=O)N2CCOC[C@@H]2C(=O)N[C@@H](CC(=O)O)C(=O)N[C@@H](C(C)C)C(=O)N(C)[C@@H](Cc2ccccc2)C(=O)N[C@@H](Cc2ccc(O)cc2)C(=O)N2CCOC[C@@H]2C(=O)N[C@@H](Cc2c[nH]c3ccccc23)C(=O)N[C@@H](Cc2ccc(O)cc2)C(=O)N[C@@H](CCCN)C(=O)N[C@H](C(=O)NCC(N)=O)CSCC(=O)N[C@@H](Cc2cc(F)c(F)c(F)c2)C(=O)N(C)[C@@H](Cc2ccccc2)C(=O)N1C [Example 9284] ({CH2CO}-[Phe(3,4,5-F3)][NMeF][NMeNle][X1]DV[NMeF]Y[X1]WY[Orn]CG-NH2; thioether N-13)
1 to 9.9 nM | CCCC[C@H]1C(=O)N(C)[C@@H](CCCC)C(=O)N[C@@H](CCCN)C(=O)N[C@H](C(=O)NCC(N)=O)CSCC(=O)N[C@@H](Cc2ccc(OC)cc2)C(=O)N(C)[C@@H](C)C(=O)N[C@@H](CC(N)=O)C(=O)N2CCC[C@H]2C(=O)N[C@@H](CC(N)=O)C(=O)N[C@@H](CC(C)C)C(=O)N2C[C@H](F)C[C@H]2C(=O)N[C@@H](Cc2c[nH]c3ccccc23)C(=O)N[C@@H](C)C(=O)N[C@@H](Cc2c[nH]c3ccccc23)C(=O)N1C [Example 7084] ({CH2CO}-Y(Me)[NMeA]NPNL[Pro(trans-4-F)]WAW[NMeNle][NMeNle][Orn]CG-NH2; thioether N-14)
10 to 99.9 nM | CCCC[C@H]1C(=O)N2CCOC[C@@H]2C(=O)N[C@@H](CC(=O)O)C(=O)N[C@@H](C(C)C)C(=O)N(C)[C@@H](Cc2ccccc2)C(=O)N[C@@H](CCC(=O)O)C(=O)N2C[C@H](O)C[C@@H]2C(=O)N[C@@H](Cc2c[nH]c3ccccc23)C(=O)N[C@@H](Cc2ccc(O)cc2)C(=O)N[C@@H](CCOC)C(=O)N[C@H](C(=O)NCC(N)=O)CSCC(=O)N[C@@H](Cc2cc(F)c(F)c(F)c2)C(=O)N(C)[C@@H](Cc2ccccc2)C(=O)N1C [Example 10189] ({CH2CO}-[Phe(3,4,5-F3)][NMeF][NMeNle][X1]DV[NMeF]E[d(cisHyp)]WY[hSer](Me)CG-NH2; thioether N-13)
1 to 9.9 nM | CCCC[C@H]1C(=O)N2CCC[C@@H]2C(=O)N[C@@H](CC(=O)O)C(=O)N[C@@H](C(C)C)C(=O)N(C)[C@@H](Cc2ccccc2)C(=O)N[C@@H](Cc2ccc(O)cc2)C(=O)N2CSC[C@@H]2C(=O)N[C@@H](Cc2c[nH]c3ccccc23)C(=O)N[C@@H](Cc2ccc(O)cc2)C(=O)N[C@@H](CC(C)C)C(=O)N[C@H](C(=O)NCC(N)=O)CSCC(=O)N[C@@H](Cc2ccccc2)C(=O)N(C)[C@@H](Cc2ccccc2)C(=O)N1C [Example 10068] ({CH2CO}-F[NMeF][NMeNle][dP]DV[NMeF]Y[dThz]WYLCG-NH2; thioether N-13)
1000 to 10000 nM | CCCC[C@H]1C(=O)N2CCC[C@@H]2C(=O)N[C@@H](CC(=O)O)C(=O)N[C@@H](C(C)C)C(=O)N(C)[C@@H](CC(C)C)C(=O)N[C@@H](CCC(N)=O)C(=O)N2CCCC[C@@H]2C(=O)N[C@@H](Cc2c[nH]c3ccccc23)C(=O)N[C@@H](Cc2ccc(O)cc2)C(=O)N[C@@H](CC(C)C)C(=O)N[C@H](C(=O)NCC(N)=O)CSCC(=O)N[C@@H](Cc2ccc(F)cc2)C(=O)N(C)[C@@H](Cc2ccccc2)C(=O)N1C [Example 9254] ({CH2CO}-[Phe(4-F)][NMeF][NMeNle][dP]DV[NMeL]Q[dPip]WYLCG-NH2; thioether N-13)
1000 to 10000 nM | CCCC[C@H]1C(=O)N[C@@H](CC(N)=O)C(=O)N2CCC[C@H]2C(=O)N[C@@H](CO)C(=O)N[C@@H](CCO)C(=O)N2CCC[C@H]2C(=O)N[C@@H](Cc2c[nH]c3ccccc23)C(=O)N[C@@H](CO)C(=O)N[C@@H](Cc2c[nH]c3ccccc23)C(=O)N(C)[C@@H](C)C(=O)N(C)[C@@H](C)C(=O)N[C@@H](CCCCN)C(=O)NC(C(=O)NCC(N)=O)CSCC(=O)N[C@@H](Cc2ccc(O)cc2)C(=O)N1C (stereo partly drawn) [Example 10208] ({CH2CO}-Y[NMeNle]NPS[hSer]PWSW[NMeA][NMeA]K[ξC]G-NH2; thioether N-14)
100 to 990 nM | CCCC[C@H]1C(=O)N(C)CC(=O)N[C@@H](CC(=O)O)C(=O)N[C@@H](C(C)C)C(=O)N(C)[C@@H](Cc2ccccc2)C(=O)N[C@@H](Cc2ccc(O)cc2)C(=O)N(C)CC(=O)NC(C)(Cc2c[nH]c3ccccc23)C(=O)N[C@@H](Cc2ccc(O)cc2)C(=O)N[C@@H](CC(C)C)C(=O)N[C@H](C(=O)NCC(N)=O)CSCC(=O)N[C@@H](Cc2ccccc2)C(=O)N(C)[C@@H](Cc2ccccc2)C(=O)N1C (single isomer, unassigned) [Example 3640-A]

From patent US10538555B2, “Macrocyclic inhibitors of the PD-1/PD-L1 and CD80(B7-1)/PD-L1 protein/protein interactions” (BRISTOL-MYERS SQUIBB COMPANY, priority 2014, dated 2020)
